Measured values published in paper PMC6037002, “Drug targeting to decrease cardiotoxicity – determination of the cytotoxic effect of GnRH-based conjugates containing doxorubicin, daunorubicin and methotrexate on human cardiomyocytes and endothelial cells” (Beilstein Journal of Organic Chemistry, 2018).
Like-named read-outs stand apart in the source and are kept apart here.

Legend:
[1] = tested on: human acute monocytic leukemia (MonoMac6) cells; details: cited from earlier work
Text: (§1) Table 1 Comparative study of cytotoxic effects and cardiotoxicity elicited by GnRH-based antitumor compounds (1–15) and reference substances (AN-152, Dox, Dau, Mtx). IC50 values show antitumor cytotoxic characteristics of the conjugates in human breast cancer (MCF-7), human colorectal adenocarcinoma (HT-29) and human acute monocytic leukemia (MM6) derived cell lines as representative tumor cells.

[2] = tested on: MCF-7 human breast adenocarcinoma cells; details: MTT assay; cited from earlier work
Text: as §1

[3] = tested on: HT-29 human colon adenocarcinoma cells; details: MTT assay; cited from earlier work
Text: as §1

[4] = tested on: primary human cardiac myocytes (HCM); details: for delta slope (DS), short-term / delta slope (DS), long-term: HCM, three parallels; for delta slope (DS), short-term: 0–2 h; for delta slope (DS), long-term: 0–72 h
Text: (§2) The main objective of the study reported here was to evaluate the in vitro cardiotoxic effects (as undesired side effects) of […] GnRH-III-based conjugates containing doxorubicin, daunorubicin and methotrexate on two essential target cells of cardiovascular diseases: vascular endothelial cells and cardiomyocytes. The rate of cytotoxicity (antitumor effect) vs cardiotoxicity (toxic effects on cardiomyocytes and vascular endothelium) is an important factor for efficient drug development for targeted tumor therapy with minimized side effects. The technique used in this work – impedimetry – is a dedicated one for real-time monitoring of cells to distinguish short-term (0–2 hours) and long-term (0–72 hours) effects elicited by the drug or carrier–drug conjugates. The basic theory of impedimetry is that proliferation/viability of cells is well detectable by monitoring of the electric impedance (Z) in an AC environment, due to the electric insulator character of intact surface membranes composed of the phospholipid bilayer. […] While cell physiological responses of short-term exposures result in characteristic changes of cell morphology (e.g., spreading), long-term effects characteristically influence in particular the proliferation of cells, and therefore the cytotoxic effects. The presented dimensionless values of delta slope (DS) measure the difference between the slope of the curve corresponding to the treatment and that of the control curve in impedimetric recordings, the negative signs refer to the relative values to the identical control.
(§3) Experimental part – Cellular samples
(§4) In the present study, GnRH conjugates containing anti-tumour drugs (e.g., daunorubicin, doxorubicin) were investigated in order to evaluate whether the conjugates exert a decrease cardiotoxic effect compared to that of the free drugs. The cardiac myocytes and the vascular endothelium cells are the most frequently detected target cells of antitumor compounds and they are employed in our study. Human umbilical vein endothelial cells (HUVEC; Promocell, Biomedica, Wien, Austria) were cultured in Endothelial Cell Growth Medium with Endothelial Cell Growth Supplement Mix (Promocell, Biomedica, Wien, Austria) and 100 µg/mL penicillin/streptomycin. Primary human cardiac myocytes (HCM; Promocell, Biomedica, Wien, Austria) were cultured in Myocyte Growth Medium (Promocell, Biomedica, Wien, Austria).
(§5) Impedimetric measurements
(§6) The xCELLigence SP system was used for impedimetric measurements. The bottom of the wells of a 96-well E-plate is installed with a golden electrode array that constitutes the adhesion surface. Adhering cells – acting as insulators – change the electric impedance measured on the electrodes. The measured impedance change is in direct correlation with the number of adhering cells and the extent of adhesion. The results of impedance change are given in the form of Cell Index (CI) calculated by the xCELLigence system according to the […]
(§7) where Zt is the measured impedance in a time point, Zb is the background impedance and F is an inbuilt factor (F = 15 at 10 kHz) depending on the frequency of the alternating current. The measurements took place in an incubator holding a 37 °C temperature and 5% carbon-dioxide […]
(§8) The experiments started with a measurement of baseline impedance for 1 hour. After that, the cells (10^4 cells/well) were added to the wells and allowed to adhere to the electrodes. When the adhering cells reached a balanced state in the wells, signified by the impedance curves […]
(§9) free drugs at 10−12 – 10−6 M and the conjugates at 10−8 – 10−6 M final concentrations were […]
(§10) added to the wells. The changes in impedance were measured for at least 72 hours. For each measurement three parallels were measured.
(§11) The evaluation of responses followed the previously described strategy: acute effects of compounds were evaluated as a characteristic morphology of the curves in the 0–2 hours

[5] = tested on: human umbilical vein endothelial cells (HUVEC); experiment: Impedimetric measurement (xCELLigence SP), delta slope, HUVEC; details: for delta slope (DS), short-term / delta slope (DS), long-term: HUVEC, three parallels; for delta slope (DS), short-term: 0–2 h; for delta slope (DS), long-term: 0–72 h; for cytotoxic effect on HUVEC, result in words: long-term (0–72 h), 10^−8–10^−6 mol/L, impedimetry, one-way ANOVA
Text: as §2, §3, §4, §5, §6, §7, §8, §9, §10, §11

[6] = grade +++/++/+/0, key not given, summary of impedimetric cytotoxicity

For COc1cccc2c1C(=O)c1c(O)c3c(c(O)c1C2=O)C[C@@](O)(C(=O)CO)C[C@@H]3O[C@H]1C[C@H](N)[C@H](O)[C@H](C)O1 [doxorubicin], the IC50 [1] is listed as 7 ± 0.1 nM, the IC50 [2] is listed as 100 nM and the IC50 [3] is listed as 100 nM. For the same molecule, the “Cardiotoxicity, HCM” value [4] was “+++”, the “delta slope (DS), short-term” value ([4]; Table S1b, 10^-6 mol/L) was 0.019 and the “delta slope (DS), short-term” value ([4]; Table S1b, 10^-7 mol/L) was 0.003. The “delta slope (DS), short-term” value ([4]; Table S1b, 10^-8 mol/L) was 0.001, the “delta slope (DS), short-term” value ([4]; Table S1b, 10^-9 mol/L) was -0.001 and the “delta slope (DS), short-term” value ([4]; Table S1b, 10^-10 mol/L) was 0.002. For the same molecule, the “delta slope (DS), short-term” value ([4]; Table S1b, 10^-11 mol/L) was 0.002, the “delta slope (DS), short-term” value ([4]; Table S1b, 10^-12 mol/L) was 0.001 and the “delta slope (DS), short-term” value ([4]; Table S2b, 10^-6 mol/L) was 0.057. The “delta slope (DS), short-term” value ([4]; Table S2b, 10^-7 mol/L) was -0.001, the “delta slope (DS), short-term” value ([4]; Table S2b, 10^-8 mol/L) was 0.001 and the “Cardiotoxicity, HUVEC” value [5] was “+++”. The “delta slope (DS), short-term” value ([5]; Table S1a, 10^-6 mol/L) was 0.063, the “delta slope (DS), short-term” value ([5]; Table S1a, 10^-7 mol/L) was 0.037 and the “delta slope (DS), short-term” value ([5]; Table S1a, 10^-8 mol/L) was -0.008. For the same molecule, the “delta slope (DS), short-term” value ([5]; Table S1a, 10^-9 mol/L) was 0.003, the “delta slope (DS), short-term” value ([5]; Table S1a, 10^-10 mol/L) was -0.004 and the “delta slope (DS), short-term” value ([5]; Table S1a, 10^-11 mol/L) was 0.021. For the same molecule, the “delta slope (DS), short-term” value ([5]; Table S1a, 10^-12 mol/L) was 0.008, the “delta slope (DS), short-term” value ([5]; Table S2a, 10^-6 mol/L) was 0.012 and the “delta slope (DS), short-term” value ([5]; Table S2a, 10^-7 mol/L) was 0.032. The “delta slope (DS), short-term” value ([5]; Table S2a, 10^-8 mol/L) was 0.002.

For CN(Cc1cnc2nc(N)nc(N)c2n1)c1ccc(C(=O)N[C@@H](CCC(=O)O)C(=O)O)cc1 [methotrexate], the IC50 [1] is given as 8 ± 0.2 nM, the IC50 [3] is given as 1400 ± 600 nM and the “Cardiotoxicity, HCM” value [4] is given as 0. The “cytotoxic effect on HCM, result in words” value [4] was “no significant effect was measured”, the “delta slope (DS), short-term” value ([4]; Table S1b, 10^-6 mol/L) was 0.005 and the “delta slope (DS), short-term” value ([4]; Table S1b, 10^-7 mol/L) was 0.001. The “delta slope (DS), short-term” value ([4]; Table S1b, 10^-8 mol/L) was 0.001, the “delta slope (DS), short-term” value ([4]; Table S1b, 10^-9 mol/L) was -0.001 and the “delta slope (DS), short-term” value ([4]; Table S1b, 10^-10 mol/L) was 0.001. For the same molecule, the “delta slope (DS), short-term” value ([4]; Table S1b, 10^-11 mol/L) was 0.001, the “delta slope (DS), short-term” value ([4]; Table S1b, 10^-12 mol/L) was 0.002 and the “delta slope (DS), short-term” value ([4]; Table S5b, 10^-6 mol/L) was 0.001. The “Cardiotoxicity, HUVEC” value [5] was “+”, the “delta slope (DS), short-term” value ([5]; Table S1a, 10^-6 mol/L) was 0.001 and the “delta slope (DS), short-term” value ([5]; Table S1a, 10^-7 mol/L) was 0.002. For the same molecule, the “delta slope (DS), short-term” value ([5]; Table S1a, 10^-8 mol/L) was 0.013, the “delta slope (DS), short-term” value ([5]; Table S1a, 10^-9 mol/L) was 0.019 and the “delta slope (DS), short-term” value ([5]; Table S1a, 10^-10 mol/L) was 0.012. The “delta slope (DS), short-term” value ([5]; Table S1a, 10^-11 mol/L) was 0.013, the “delta slope (DS), short-term” value ([5]; Table S1a, 10^-12 mol/L) was 0.015 and the “delta slope (DS), short-term” value ([5]; Table S5a, 10^-6 mol/L) was 0.005. The “delta slope (DS), short-term” value ([5]; Table S5a, 10^-7 mol/L) was 0.003 and the “delta slope (DS), short-term” value ([5]; Table S5a, 10^-8 mol/L) was -0.003.

In the case of [GnRH-III(Dau=Aoa-C)]2 [conjugate 9], the IC50 [1] is given as 1690 ± 410 nM, the IC50 [2] is given as 4100 ± 800 nM and the “delta slope (DS), short-term” value ([4]; Table S4b, 10^-6 mol/L) is given as 0.003. For the same molecule, the “delta slope (DS), short-term” value ([4]; Table S4b, 10^-7 mol/L) was 0.002, the “delta slope (DS), short-term” value ([4]; Table S4b, 10^-8 mol/L) was -0.001 and the “delta slope (DS), long-term” value ([4]; Table S4b, 10^-6 mol/L) was -0.001. For the same molecule, the “delta slope (DS), long-term” value ([4]; Table S4b, 10^-7 mol/L) was -0.001, the “delta slope (DS), long-term” value ([4]; Table S4b, 10^-8 mol/L) was -0.002 and the “Cardiotoxicity, HCM” value [4, 6] was 0. For the same molecule, the “cytotoxic effect on HCM, result in words” value ([4]; long-term (0–72 h), 10^−8–10^−6 mol/L (free drugs 10^−12–10^−6 mol/L), impedimetry, one-way ANOVA) was “completely lost their cytotoxic effect”, the “delta slope (DS), short-term” value ([5]; Table S4a, 10^-6 mol/L) was 0.014 and the “delta slope (DS), short-term” value ([5]; Table S4a, 10^-7 mol/L) was 0.008. For the same molecule, the “delta slope (DS), short-term” value ([5]; Table S4a, 10^-8 mol/L) was 0.001, the “delta slope (DS), long-term” value ([5]; Table S4a, 10^-6 mol/L) was 0.001 and the “delta slope (DS), long-term” value ([5]; Table S4a, 10^-7 mol/L) was -0.001. For the same molecule, the “delta slope (DS), long-term” value ([5]; Table S4a, 10^-8 mol/L) was -0.002, the “Cardiotoxicity, HUVEC” value [5, 6] was 0 and the “cytotoxic effect on HUVEC, result in words” value [5] was “completely lost the cytotoxic effect”.

In the case of “{GnRH-III(Dau=Aoa-YRRL-C)}2 [conjugate 11]”, the IC50 [1] is listed as 420 ± 50 nM, the “delta slope (DS), short-term” value ([4]; Table S4b, 10^-6 mol/L) is listed as -0.004 and the “delta slope (DS), short-term” value ([4]; Table S4b, 10^-7 mol/L) is listed as -0.001. The “delta slope (DS), short-term” value ([4]; Table S4b, 10^-8 mol/L) was -0.001, the “delta slope (DS), long-term” value ([4]; Table S4b, 10^-6 mol/L) was −0.004 and the “delta slope (DS), long-term” value ([4]; Table S4b, 10^-7 mol/L) was -0.002. For the same molecule, the “delta slope (DS), long-term” value ([4]; Table S4b, 10^-8 mol/L) was -0.001, the “delta slope (DS), short-term” value ([5]; Table S4a, 10^-6 mol/L) was 0.014 and the “delta slope (DS), short-term” value ([5]; Table S4a, 10^-7 mol/L) was 0.002. For the same molecule, the “delta slope (DS), short-term” value ([5]; Table S4a, 10^-8 mol/L) was 0.022, the “delta slope (DS), long-term” value ([5]; Table S4a, 10^-6 mol/L) was −0.017 and the “delta slope (DS), long-term” value ([5]; Table S4a, 10^-7 mol/L) was −0.005. The “delta slope (DS), long-term” value ([5]; Table S4a, 10^-8 mol/L) was 0.001.

For “{[^4N-MeSer]-GnRH-III(Dau=Aoa-C)}2 (disulfide) [conjugate 10]”, the IC50 [1] is listed as 783 ± 90 nM, the IC50 [2] is listed as 6200 ± 1500 nM and the “delta slope (DS), short-term” value ([4]; Table S4b, 10^-6 mol/L) is listed as 0.001. For the same molecule, the “delta slope (DS), short-term” value ([4]; Table S4b, 10^-7 mol/L) was -0.001, the “delta slope (DS), short-term” value ([4]; Table S4b, 10^-8 mol/L) was -0.002 and the “delta slope (DS), long-term” value ([4]; Table S4b, 10^-6 mol/L) was −0.005. The “delta slope (DS), long-term” value ([4]; Table S4b, 10^-7 mol/L) was −0.003, the “delta slope (DS), long-term” value ([4]; Table S4b, 10^-8 mol/L) was -0.001 and the “delta slope (DS), short-term” value ([5]; Table S4a, 10^-6 mol/L) was 0.017. For the same molecule, the “delta slope (DS), short-term” value ([5]; Table S4a, 10^-7 mol/L) was 0.011, the “delta slope (DS), short-term” value ([5]; Table S4a, 10^-8 mol/L) was 0.008 and the “delta slope (DS), long-term” value ([5]; Table S4a, 10^-6 mol/L) was 0.004. The “delta slope (DS), long-term” value ([5]; Table S4a, 10^-7 mol/L) was 0.002, the “delta slope (DS), long-term” value ([5]; Table S4a, 10^-8 mol/L) was 0.001 and the “Cardiotoxicity, HUVEC” value [5, 6] was 0. For the same molecule, the “cytotoxic effect on HUVEC, result in words” value [5] was “completely lost the cytotoxic effect”.
